Legend:
[1] = tested on: CYP enzymes in rat liver microsomes (RLM); experiment: Inhibition of 20-HETE production in rat liver microsomes (RLM); format: biochemical
Method: (§1) Experimental principle: The inhibitory activity of 20-HETE production is evaluated by testing the inhibitory effects of the compound on human liver microsomes (HLM), rat liver microsomes (RLM), mouse liver microsomes (MLM), or […] CYP4 subtype enzymes (CYP4F2). This assay employs HLM, RLM, or MLM along with recombinant CYP4F2 (rCYP4F2) and recombinant CYP4A11 (rCYP4A11), which are […] CYP4 subtype enzymes, to detect the effects of the test compound at different concentrations on the metabolic rate of enzyme-specific substrates, to determine the inhibitory effects of the test compound on CYP enzymes in HLM, RLM, or MLM.
(§2) Experimental methods: Dissolve the test compound in DMSO, and subsequently dilute it with an acetonitrile and DMSO mixture (3:1). Add 2 μl of varying concentrations of the test compound and 100 μl of potassium phosphate buffer containing either liver microsomes or recombinant enzymes to a 96-well plate. After mixing well, transfer 30 μl to another well (in duplicate), add 15 μl of 400 μM substrate solution, and mix well again. Preheat at 37° C. for 10 minutes, and then add 15 μl of 6 mM NADPH and incubate at 37° C. for 25 minutes. After 25 minutes, add 160 μl of acetonitrile solution (containing 0.1 μg/ml internal standard) to stop the reaction. Mix well, centrifuge at 3500 g for 15 minutes, and then analyze the supernatant using LC-MS/MS.
(§3) Plot the compound concentration on the x-axis and the inhibition rate on the y-axis to draw the curve. Use GraphPad Prism 5 software to fit the curve and calculate the IC50. The formula is Y=Bottom+(Top−Bottom)/(1+10^((Log IC50−X)×HillSlope)). X represents the logarithmic concentration of the inhibitor, and Y represents the relative enzyme activity at a given inhibitor concentration (relative to the condition without the inhibitor).
(§4) Calculate the inhibition percentages at concentrations of 1000 nM, 500 nM, or 100 nM as well as the half-maximal inhibitory concentration (IC50) of the test compound from the above experiment.

[2] = Pharmacokinetic (PK) experiment, oral administration in rats; format: in vivo, Male SD rats; settings: 20 mg/kg; for AUC(0-inf) / Cmax / Tmax / half-life / AUC(0-t): male, SD, rat, plasma; for AUC(0-t): read-out: AUC0-24
Method: Male SD rats, weighing 180-250 grams, were fasted overnight before testing. The test compound was dissolved in 30% sulfobutylether-β-cyclodextrin and administered orally at a dose of 20 mg/kg. Blood was collected from the tail vein at 15 minutes, 30 minutes, and 1, 2, 4, 6, 8, and 24 hours after administration. Approximately 0.3 ml of blood was collected at each time point, placed in a centrifuge tube containing K2-EDTA, and centrifuged (2000 g for 10 minutes at 4° C.) to take the plasma, which was then stored in an ultra-low temperature freezer at −70° C. or below. A 50 μL plasma sample was mixed with 135 μL of acetonitrile (containing 0.5 μg/mL internal standard) and vortexed for protein precipitation. After centrifugation, the supernatant was taken for LC-MS/MS analysis.

[3] = tested on: CYP enzymes in human liver microsomes (HLM); experiment: Inhibition of 20-HETE production in human liver microsomes (HLM); format: biochemical
Method: as §1, §2, §3, §4

RLM (% inh @ 500 nM) [1]	IC50 [3]	HLM (% inh @ 500 nM) [3]	Compound	further results
57.83%	20.6 nM	87.72%	O=C(CCCCCc1ccccc1)NCC1CCN(c2ccc(-c3cn[nH]c3)cc2)CC1 [Compound 113, N-((1-(4-(1H-pyrazol-4-yl)phenyl)piperidin-4-yl)methyl)-6-phenylhexanamide]	IC50 [1]: 15.5 nM; absorption and blood exposure after oral administration (in words) [2]: well absorbed and exhibit high blood exposure; AUC(0-inf) [2]: 10100 ng·h/mL; Cmax [2]: 2420 ng/mL; Tmax [2]: 1.33 h; half-life [2]: 2.93 h; AUC(0-t) [2]: 10100 ng·h/mL
75.13%	19.7 nM	95.89%	O=C(N1CCCC1)N1CCC(c2ccc(-c3cn[nH]c3)c(F)c2F)CC1 [Compound 71, (4-(2,3-difluoro-4-(1H-pyrazol-4-yl)phenyl)piperidin-1-yl)(pyrrolidin-1-yl) methanone]	absorption and blood exposure after oral administration (in words) [2]: well absorbed and exhibit high blood exposure; AUC(0-inf) [2]: 58000 ng·h/mL; Cmax [2]: 8730 ng/mL; Tmax [2]: 2 h; half-life [2]: 2.41 h; AUC(0-t) [2]: 57900 ng·h/mL
62.98%	–	86.12%	O=C1CCCN1CC1CCN(c2ccc(-c3cc[nH]n3)c(F)c2F)CC1 [Compound 77, 1-((1-(2,3-difluoro-4-(1H-pyrazol-3-yl)phenyl)piperidin-4-yl)methyl)pyrrolidin-2-one]	–
32.02%	–	81.26%	O=C(C1CCN(c2ccc(-c3cn[nH]c3)cc2)CC1)N1CCCCC1 [Compound 54, (1-(4-(1H-pyrazol-4-yl)phenyl)piperidin-4-yl)(piperidin-1-yl) methanone]	IC50 [1]: 995 nM
8.61%	–	47.87%	COC(=O)c1cc(-c2cn[nH]c2)ccc1N1CCC(CN2CCCC2=O)CC1 [Compound 18, methyl 2-(4-((2-oxopyrrolidin-1-yl)methyl)piperidin-1-yl)-5-(1H-pyrazol-4-yl)benzoate]	–
43.82%	–	76.97%	O=C(NC1CCN(c2ccc(-c3cn[nH]c3)cc2)CC1)C1CCCC1 [Compound 69, N-(1-(4-(1H-pyrazol-4-yl)phenyl)piperidin-4-yl)cyclopentanecarboxamide]	–
17.66%	–	65.27%	O=C1CCCN1CC1CCN(c2ccc(-c3cn[nH]c3)cc2CO)CC1 [Compound 17, 1-((1-(2-(hydroxymethyl)-4-(1H-pyrazol-4-yl)phenyl)piperidin-4-yl)methyl)pyrrolidin-2-one]	–
–	17.6 nM	85.27%	O=C(Nc1ccc(F)cc1)C1CCN(c2ccc(-c3cn[nH]c3)cc2)CC1 [Compound 61, 1-(4-(1H-pyrazol-4-yl)phenyl)-N-(4-fluorophenyl)piperidine-4-carboxamide]	IC50 [1]: 60.5 nM
39.97%	–	73.42%	O=C1CCCN1CCC1CCN(c2ccc(-c3cn[nH]c3)cc2)CC1 [Compound 48, 1-(2-(1-(4-(1H-pyrazol-4-yl)phenyl)piperidin-4-yl)ethyl)pyrrolidin-2-one]	–
31.42%	–	61.30%	CC(=O)NCC1CCN(c2ccc(-c3cn[nH]c3)cc2)CC1 [Compound 43, N-((1-(4-(1H-pyrazol-4-yl)phenyl)piperidin-4-yl)methyl) acetamide]	–
77.48%	26.4 nM	94.83%	O=C(NCC1CCCC1)N1CCN(c2ccc(-c3cn[nH]c3)c(F)c2F)CC1 [Compound 92, N-(cyclopentylmethyl)-4-(2,3-difluoro-4-(1H-pyrazol-4-yl)phenyl)piperazine-1-carboxamide]	–
–	25.6 nM	95.80%	O=C(C1CCCCC1)N1CCC(c2ccc(-c3cn[nH]c3)c(F)c2F)CC1 [Compound 97, cyclohexyl(4-(2,3-difluoro-4-(1H-pyrazol-4-yl)phenyl)piperidin-1-yl) methanone]	IC50 [1]: 25.4 nM
–	32.4 nM	–	O=C(C1CCN(c2ccc(-c3cn[nH]c3)cc2F)CC1)N1CC2CCCC2C1 (stereo not drawn) [Compound 153, (1-(2-fluoro-4-(1H-pyrazol-4-yl)phenyl)piperidin-4-yl)(hexahydrocyclopenta[c]pyrrol-2 (1H)-yl) methanone]	IC50 [1]: 361 nM; absorption and blood exposure after oral administration (in words) [2]: well absorbed and exhibit high blood exposure; AUC(0-inf) [2]: 566000 ng·h/mL; Cmax [2]: 75200 ng/mL; Tmax [2]: 2 h; half-life [2]: 3.26 h; AUC(0-t) [2]: 558000 ng·h/mL; HLM (% inh @ 100 nM) ([3]; 100 nM): 74.69%
40.73%	–	80.70%	O=C1CCCN1CC1CCN(c2ccc(-c3cc[nH]n3)cc2F)CC1 [Compound 76, 1-((1-(2-fluoro-4-(1H-pyrazol-3-yl)phenyl)piperidin-4-yl)methyl)pyrrolidin-2-one]	–
35.54%	43.2 nM	–	O=C(NCC1CCN(c2ccc(-c3cn[nH]c3)cc2)CC1)C1CCCC1 [Compound 46, N-((1-(4-(1H-pyrazol-4-yl)phenyl)piperidin-4-yl)methyl)cyclopentanecarboxamide]	IC50 [1]: 942 nM
17.99%	–	76.91%	Cc1cc(-c2cn[nH]c2)ccc1N1CCC(CN2CCCC2=O)CC1 [Compound 12, 1-((1-(2-methyl-4-(1H-pyrazol-4-yl)phenyl)piperidin-4-yl)methyl)pyrrolidin-2-one]	–
77.16%	–	92.84%	O=C(C1CCCC1)N1CCC(c2ccc(-c3cn[nH]c3)cc2F)CC1 [Compound 138, cyclopentyl(4-(2-fluoro-4-(1H-pyrazol-4-yl)phenyl)piperidin-1-yl) methanone]	–
76.10%	–	84.23%	C[C@H]1CN(C(=O)N2CCCC2)CCN1c1ccc(-c2cn[nH]c2)c(F)c1F [Compound 102, (S)-(4-(2,3-difluoro-4-(1H-pyrazol-4-yl)phenyl)-3-methylpiperazin-1-yl)(pyrrolidin-1-yl) methanone]	–
84.99%	–	82.17%	O=C(Cc1ccccc1)N1CCC(c2ccc(-c3cn[nH]c3)c(F)c2F)CC1 [Compound 111, 1-(4-(2,3-difluoro-4-(1H-pyrazol-4-yl)phenyl)piperidin-1-yl)-2-phenylethan-1-one]	–
–	25.2 nM	85.05%	CCCCCCC(=O)NCC1CCN(c2ccc(-c3cn[nH]c3)cc2)CC1 [Compound 44, N-((1-(4-(1H-pyrazol-4-yl)phenyl)piperidin-4-yl)methyl) heptylamide]	IC50 [1]: 33.8 nM
14.48%	–	57.59%	O=C(C1CCN(c2ccc(-c3cn[nH]c3)cc2)CC1)N1CCOCC1 [Compound 50, (1-(4-(1H-pyrazol-4-yl)phenyl)piperidin-4-yl)(morpholinyl) methanone]	–
54.89%	–	85.59%	C#CCCCCCC(=O)NCC1CCN(c2ccc(-c3cn[nH]c3)cc2)CC1 [Compound 114, N-((1-(4-(1H-pyrazol-4-yl)phenyl)piperidin-4-yl)methyl)oct-7-ynamide]	–
29.56%	–	65.78%	O=C1CCCN1C1CCN(c2ccc(-c3cn[nH]c3)cc2)CC1 [Compound 73, 1-(1-(4-(1H-pyrazol-4-yl)phenyl)piperidin-4-yl) pyrrolidin-2-one]	–

Compound	RLM (% inh @ 500 nM) [1]	IC50 [3]	HLM (% inh @ 500 nM) [3]	further results
O=C1N(CC2CCN(c3ccc(-c4cn[nH]c4)cc3)CC2)CCC12CCCCC2 [Compound 31, 2-((1-(4-(1H-pyrazol-4-yl)phenyl)piperidin-4-yl)methyl)-2-azaspiro[4.5]decan-1-one]	14.73%	–	68.02%	–
O=C(N1CCCC1)N1CC2CCC(C1)N2c1ccc(-c2cn[nH]c2)c(F)c1F [Compound 128, (8-(2,3-difluoro-4-(1H-pyrazol-4-yl)phenyl)-3,8-diazabicyclo[3.2.1]octan-3-yl)(pyrrolidin-1-yl) methanone]	62.11%	–	89.99%	–
